# Source: ChEMBL document CHEMBL1149440, “Indol-1-yl acetic acids as peroxisome proliferator-activated receptor agonists: design, synthesis, structural biology, and molecular docking studies” (J Med Chem, 2006)
# Columns and labels:
# [1] = target: T1, Peroxisome proliferator-activated receptor alpha (Homo sapiens, UniProt Q07869); format: functional, cell-based, Huh-7
# T1 sequence (Q07869 whole entry): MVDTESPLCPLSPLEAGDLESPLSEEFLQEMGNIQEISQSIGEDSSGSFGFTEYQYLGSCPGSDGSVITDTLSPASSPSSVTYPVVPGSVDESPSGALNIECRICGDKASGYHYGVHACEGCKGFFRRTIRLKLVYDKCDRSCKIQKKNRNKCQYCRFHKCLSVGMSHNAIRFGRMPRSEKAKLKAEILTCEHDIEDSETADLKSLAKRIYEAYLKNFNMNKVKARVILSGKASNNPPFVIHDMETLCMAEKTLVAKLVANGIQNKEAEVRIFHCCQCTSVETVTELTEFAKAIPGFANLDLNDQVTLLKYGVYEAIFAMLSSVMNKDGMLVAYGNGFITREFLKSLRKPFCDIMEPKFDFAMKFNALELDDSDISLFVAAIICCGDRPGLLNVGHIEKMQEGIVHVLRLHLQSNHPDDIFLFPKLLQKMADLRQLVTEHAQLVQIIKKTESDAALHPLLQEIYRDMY
# [2] = target: T1, Peroxisome proliferator-activated receptor alpha
# [3] = target: T2, Peroxisome proliferator-activated receptor delta (Homo sapiens, UniProt Q03181); format: functional, cell-based, Huh-7
# T2 sequence (Q03181 whole entry): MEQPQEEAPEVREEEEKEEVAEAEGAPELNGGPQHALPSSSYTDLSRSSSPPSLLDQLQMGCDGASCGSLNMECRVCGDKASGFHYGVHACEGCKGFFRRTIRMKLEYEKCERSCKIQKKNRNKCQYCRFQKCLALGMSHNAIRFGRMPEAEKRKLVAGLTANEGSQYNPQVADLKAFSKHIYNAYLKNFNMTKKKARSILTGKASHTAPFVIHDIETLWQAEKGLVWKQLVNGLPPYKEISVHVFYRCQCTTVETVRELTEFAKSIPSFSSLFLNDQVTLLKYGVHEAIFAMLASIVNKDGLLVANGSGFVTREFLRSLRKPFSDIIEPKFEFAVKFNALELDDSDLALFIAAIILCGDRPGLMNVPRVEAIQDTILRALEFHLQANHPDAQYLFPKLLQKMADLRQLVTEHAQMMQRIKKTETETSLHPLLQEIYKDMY
# [4] = target: T2, Peroxisome proliferator-activated receptor delta
Structure (SMILES),EC50 [1] [nM],IC50 [2] [nM],EC50 [3] [nM],IC50 [4] [nM]
CCCc1cc(C(=O)c2ccc(F)cc2)ccc1OCCCOc1ccc2c(ccn2CC(=O)O)c1,50,470,,
CCCc1cc(C(=O)c2ccc(F)cc2)ccc1OCCCOc1cccc2c1ccn2CC(=O)O,773,414,4000,3260
O=C(O)Cn1ccc2ccc(OCCCOc3ccc(C(=O)c4ccc(F)cc4)cc3)cc21,765,116,4350,3150
O=C(O)Cn1ccc2c(OCCCOc3ccc4cc(C(=O)c5ccccc5)ccc4c3)cccc21,> 10000,1080,> 10000,> 10000
O=C(O)Cn1ccc2cc(OCCCOc3ccc4cc(C(=O)c5ccccc5)ccc4c3)ccc21,270,484,5600,4430
CCCc1c(OCCCOc2ccc3c(ccn3CC(=O)O)c2)ccc2c(C(F)(F)F)noc12,,496,,
CCCc1c(OCCCOc2ccc3c(ccn3CC(=O)O)c2)ccc2cc(C(=O)c3ccccc3)ccc12,8,113,,
CCCc1c(OCCCOc2ccc3ccn(CC(=O)O)c3c2)ccc2cc(C(=O)c3ccccc3)ccc12,2480,4490,4900,2400
CCCc1c(OCCCOc2cccc3c2ccn3CC(=O)O)ccc2cc(C(=O)c3ccccc3)ccc12,19,578,> 10000,5380
O=C(O)Cn1ccc2c(OCCCOc3ccc(C(=O)c4ccc(F)cc4)cc3)cccc21,> 10000,1020,> 10000,> 10000
O=C(O)Cn1ccc2ccc(OCCCOc3ccc4cc(C(=O)c5ccccc5)ccc4c3)cc21,> 10000,4490,> 10000,2570
O=C(O)Cn1ccc2cc(OCCCOc3ccc(C(=O)c4ccc(F)cc4)cc3)ccc21,> 10000,> 10000,> 10000,> 10000
CCCc1cc(C(=O)c2ccc(F)cc2)ccc1OCCCOc1ccc2ccn(CC(=O)O)c2c1,> 10000,1050,5290,7620
